Results reported in PubChem BioAssay AID608 (Sanford-Burnham Center for Chemical Genomics, 2007).
Calls of active or inactive are those of the source. The rule behind the calls is not given here.

biological target: Peptidyl-prolyl cis-trans isomerase FKBP1A (Homo sapiens) (UniProt P62942); assay: FKBP12 binders, biophysical, NMR detection (AID 608); settings: NMR binding, purified FKBP12
Sequence (P62942 whole entry, looked up): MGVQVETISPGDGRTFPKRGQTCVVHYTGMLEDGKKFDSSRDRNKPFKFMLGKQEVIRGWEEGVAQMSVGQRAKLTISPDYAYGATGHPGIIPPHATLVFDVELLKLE

SMILES	Kd
Nc1ccc2c(c1)OCCO2	> 4 mM (inactive)
C[C@H]1C[C@@H](O)[C@]2(O)[C@@]13CC(=O)OC[C@@]2(C)[C@](C)(O)C(=O)C3	> 4 mM (inactive)
COc1ccc(C(=O)/C=C/c2ccccc2)cc1	> 4 mM (inactive)
NC(=S)N1CCC(c2ccccc2)=N1	> 4 mM (inactive)
C=CC(C)(O)CC/C=C(\C)CCC=C(C)C (configuration not stated)	> 4 mM (inactive)
Cc1nc(-c2ccc(C(=O)O)s2)cs1	> 4 mM (inactive)
Cc1noc(C)c1C(=O)Nc1ccccc1-c1ccccc1	> 4 mM (inactive)
CC(O)C(=O)N/N=C/c1ccccc1 (configuration not stated)	> 4 mM (inactive)
NCc1csc(-c2ccccc2)n1	> 4 mM (inactive)
NS(=O)(=O)c1ccc2c(c1)OCCO2	> 4 mM (inactive)
CC1SC(=NC(=O)c2ccco2)NC1=O (configuration not stated)	> 4 mM (inactive)
C[C@]12CC(=O)C3C(CC[C@@H]4C[C@H](O)CC[C@]34C)C1CC[C@]2(O)C(=O)CO (some centres not stated)	> 4 mM (inactive)
Cc1cc(C)n2c(SCc3cccs3)nnc2n1	> 4 mM (inactive)
CC1(C)CC2C1CC[C@]1(C)CCC3C(C(=O)O)CC(=O)O[C@@]32C1 (some centres not stated)	> 4 mM (inactive)
CC(C)=NNC(=O)c1ccccc1	> 4 mM (inactive)
CC(C)CCCC(C)[C@H]1CCC2C3CC=C4C[C@@H](O)CC[C@]4(C)C3CC[C@@]21C (some centres not stated)	> 4 mM (inactive)
Cc1nc2ccc(F)cc2cc1C(=O)NCc1ccco1	> 4 mM (inactive)
CS(=O)(=O)N1CCC(C(=O)NC2CCCC2)CC1	> 4 mM (inactive)
Cc1cc(C(=O)N2CCN(c3ccccn3)CC2)no1	> 4 mM (inactive)

SMILES	Kd
OC1CNCc2cc3c(cc21)OCCO3 (configuration not stated)	> 4 mM (inactive)
O=C1NC(=S)S/C1=C/c1ccncc1	> 4 mM (inactive)
Cn1cnc2nc3n(c2c1=O)CCC3	> 4 mM (inactive)
C=CCn1c(N)c(C(=O)N2CCOCC2)sc1=S	> 4 mM (inactive)
O=C(O)CCC(=O)NCc1cccnc1	> 4 mM (inactive)
CC(=O)Nc1ccc(S(=O)(=O)NC2=NCCS2)cc1	> 4 mM (inactive)
Cc1ccc2[nH]c3nc(=S)[nH]nc3c2c1	> 4 mM (inactive)
CCC(C)C(=O)c1c(O)c(C)c2oc3c(C)c(O)c(C(=O)C(C)CC)c(O)c3c2c1O (configuration not stated)	> 4 mM (inactive)
CN1CCN(C(=O)c2ccccc2C(=O)O)CC1	> 4 mM (inactive)
Cc1cc(=O)n2[nH]cnc2n1	> 4 mM (inactive)
CC1CN(C2=NCCN2)CC(C)O1 (configuration not stated)	> 4 mM (inactive)
Cc1nc(-c2ccc(CO)s2)cs1	> 4 mM (inactive)
CC(C)(O)CC[C@@H](O)[C@](C)(O)C1CC[C@@]2(O)C3=CC(=O)C4C[C@@H](O)[C@@H](O)C[C@]4(C)C3CC[C@]12C (some centres not stated)	> 4 mM (inactive)
c1csc(-c2nn[nH]n2)c1	> 4 mM (inactive)
Cc1cc(OCC(=O)N2CCOCC2)ccc1C(C)C	inactive
Cc1cc(N)ccc1NC(=O)c1ccco1	> 4 mM (inactive)
Cc1ccc(NS(=O)(=O)N2CCCCC2)cc1	0.425 mM
COc1ccc(C(O)c2nccn2C)cc1 (configuration not stated)	> 4 mM (inactive)
CN(C)c1nc(N)nc(-c2nc3ccccc3s2)n1	> 4 mM (inactive)

SMILES	Kd
Nc1cc(=O)[nH]c(=O)n1-c1ccccc1	> 4 mM (inactive)
O=c1[nH]cc(Nc2ccccc2)c(=O)[nH]1	> 4 mM (inactive)
CC(C)NC1CS(=O)(=O)CC1O (configuration not stated)	> 4 mM (inactive)
Cn1c(=O)n(-c2cccc(Cl)c2)c(=O)n1C	> 4 mM (inactive)
Nc1ccc2c(c1)OCO2	> 4 mM (inactive)
Cc1nn2c(=O)nc3sc4c(c3c2[nH]c1=O)CCCC4	> 4 mM (inactive)
Cn1c(=O)c2c(ncn2CCNC2=NCCC2)n(C)c1=O	> 4 mM (inactive)
Cc1c(C(=O)Nc2ccccn2)oc2ccccc12	> 4 mM (inactive)
Cc1noc(C)c1C(=O)NCc1cccs1	> 4 mM (inactive)
CC(=O)O[C@H]1CCC2(C)C3=C(CCC2C1(C)C)[C@]1(C)CCC(C(C)CCC=C(C)C)[C@@]1(C)CC3 (some centres not stated)	> 4 mM (inactive)
c1cncc(Nc2nc(-c3ccncc3)cs2)c1	> 4 mM (inactive)
COC(=O)Cn1c2ccccc2c2nc(C)sc21	> 4 mM (inactive)
Cc1nc2ccc(C(=O)O)cc2[nH]1	> 4 mM (inactive)
CC(=O)O[C@@H]1CC2C(C)(C)[C@@H](O)CC[C@]2(C)C2CC[C@@]3(C)[C@H](c4ccoc4)OC(=O)[C@H]4O[C@]43[C@@]21C (some centres not stated)	> 4 mM (inactive)
CC(=O)Nc1cc2c(cc1C(=O)C(C)C)OCCO2	> 4 mM (inactive)
O=C1C2=C(SCCS2)C(=O)N1CCCO	0.251 mM
CC(C)=CCc1c(O)cc(C)oc1=O	> 4 mM (inactive)
CC(C)c1ccc(SCC(=O)N2CCOCC2)cc1	5e-05 mM
O=C(O)c1ccc(Oc2ccccc2)nc1	> 4 mM (inactive)
